What was measured:
[1] = test system: proliferative dermatological disorders; assay: Use in human subjects suffering from dermatological disorders; format: in vivo; conditions: humans
Text: Another embodiment of the present invention refers to method of use of a composition comprising of Acetyl-11-keto-beta-boswellic acid (BOSWELLIC ACID) and Bakuchiol for alleviation and management of skin rashes, itching, and boils resulting from skin proliferative disorders, specifically psoriasis, atopic dermatitis. For example, the method of use disclosed herein may be administered alongside steroidal therapy during the steroid dose tapering phase, followed by standalone administration of the combination provides complete remission of skin conditions, and is maintained that upon continuance of recommended dosage. In certain embodiments the skin disorder may be resulting from irritants, allergens, trigger, or autoimmune reasons, and the combination defined herein is effective in all of the above. The present invention includes the formulation of a Bakuchiol and BOSWELLIC ACID combination in an oral dosage form or, lotion, cream, ointment which can be applied topically.

[2] = test system: LOX; assay: LOX inhibition assay; format: biochemical

For 3-o-Acetyl-11-keto-beta-boswellic acid, the “Remission of proliferative dermatological conditions” value [1] was “substantial remission”.

C=C[C@@](C)(/C=C/c1ccc(O)cc1)CCC=C(C)C [Bakuchiol] was tested, and the IC50 [2] was 3.1 µM.

— patent US20160030498A1, “HERBAL COMPOSITIONS FOR TREATING PAIN AND SKIN DISORDERS” (RUPAK ENTERPRISES (P) LIMITED, priority 2013, published 2016)
